“And” between values parts separate entries of the source, which are not always exact repeats. Identical values can stand only once. Like-named read-outs stand apart in the source and are kept apart here.
Key:
MDA-MB-231 [1] = details: for Selectivity index: IC50 MCF-10A / IC50 MDA-MB-231; for percentage of survival: 72 h; for Potency compared to control POD: MDA-MB-231, relative to POD; for Potency compared to control VP-16: MDA-MB-231, relative to VP-16; for IC50: read-out: Cytotoxic activity IC50, MDA-MB-231, 72 h, mean of three independent experiments ± S.D.
BT-549 [2] = details: for percentage of survival: 72 h; for Potency compared to control POD: BT-549, relative to POD; for Potency compared to control VP-16: BT-549, relative to VP-16; for Selectivity index: IC50 MCF-10A / IC50 BT-549; for IC50: read-out: Cytotoxic activity IC50, BT-549, 72 h, mean of three independent experiments ± S.D.
MCF-7 [3] = assay: Clonogenicity (recovery) assay, 72 h post-treatment, SRB; details: for percentage of recovery: 72 h post-treatment; for effect on proliferation and recovery after treatment: in words
MDA-MB-231 [4] = assay: as above; details: for percentage of recovery: 72 h post-treatment; for effect on proliferation and recovery after treatment: in words
MCF-7 [5] = details: for Selectivity index: IC50 MCF-10A / IC50 MCF-7; for percentage of survival: 72 h; for Potency compared to control POD: MCF-7, relative to POD; for Potency compared to control VP-16: MCF-7, relative to VP-16; for IC50: read-out: Cytotoxic activity IC50, MCF-7, 72 h, mean of three independent experiments ± S.D.
in vitro = details: human
MCF-10A [6] = details: for percentage of survival: 0.08 µg/mL, 72 h; for Potency compared to control POD: relative to POD; for Potency compared to control VP-16: relative to VP-16
BT-549 [7] = assay: Clonogenicity (recovery) assay, 72 h post-treatment, SRB; details: for percentage of recovery: 72 h post-treatment; for effect on proliferation and recovery after treatment: in words
MCF-10A [8] = assay: as above; details: for percentage of recovery: 0.08 µg/mL, 72 h post-treatment; for effect on proliferation and recovery after treatment: in words
[9] = Water solubility (observation in culture medium); format: physicochemical; details: in words
[10] = test system: MCF-7, MDA-MB-231, BT-549, and MCF-10A; assay: Cytotoxicity, clonogenicity and selectivity over the panel of breast cell lines; format: cell-based, human; details: in words, SI ≥ 10 selective
[11] = Cytotoxic activity IC50, MCF-10A, 72 h, mean of three independent experiments ± S.D.

Row | Structure (SMILES) | Selectivity index (MDA-MB-231 [1]) | percentage of survival (MDA-MB-231 [1]; MDA-MB-231, 0.08 µg/mL) | percentage of survival (MDA-MB-231 [1]; MDA-MB-231, 0.4 µg/mL) | Potency compared to control POD (MDA-MB-231 [1]) | Potency compared to control VP-16 (MDA-MB-231 [1]) | IC50 (MDA-MB-231 [1]) | percentage of survival (BT-549 [2]; BT-549, 0.08 µg/mL) | Potency compared to control POD (BT-549 [2]) | Selectivity index (BT-549 [2]) | IC50 (BT-549 [2]) | percentage of recovery (MCF-7 [3]; MCF-7, 0.08 µg/mL) | percentage of recovery (MDA-MB-231 [4]; MDA-MB-231, 0.08 µg/mL) | percentage of recovery (MDA-MB-231 [4]; MDA-MB-231, 0.4 µg/mL) | effect on proliferation and recovery after treatment (MDA-MB-231 [4]; MDA-MB-231, 10 and 2 µg/mL) | Selectivity index (MCF-7 [5]) | percentage of survival (MCF-7 [5]; MCF-7, 0.08 µg/mL) | IC50 (MCF-7 [5]) | percentage of survival (MCF-10A [6]) | percentage of recovery (BT-549 [7]; BT-549, 0.08 µg/mL) | percentage of recovery (MCF-10A [8]; MCF-10A) | also measured
1 | COc1ccc([C@@H]2c3cc4c(c(OC)c3C[C@H]3COC(=O)[C@@H]32)OCO4)cc1OC [Compound 1, 5′-demethoxy-β-peltatin-A-methylether] | 0.06 | 96% ± 6.9% | 28% ± 3.1% | 0.010 | 0.016 | 2440 nM and 2400 nM | 82% ± 15.7% | 0.004 | 0.11 | 1260 nM and 1200 nM and 1270 nM | 172% ± 24.5% | 184% ± 6.4% | 49% ± 18.6% | inhibited proliferation and blocked recovery | 0.02 | 130% ± 18.55% | 7220 nM and 7200 nM | 61% ± 7.9% | 124% ± 9.7% | 83% ± 3.3% | Potency compared to control VP-16 (BT-549 [2]): 0.126; effect on proliferation and recovery after treatment (MCF-7 [3]; MCF-7, 10, 2, and 0.4 µg/mL): dose-dependent cytotoxic effect at concentrations of 10, 2, and 0.4 µg/mL, which persisted after removal of the treatment; Potency compared to control POD (MCF-7 [5]): 0.002; Potency compared to control VP-16 (MCF-7 [5]): 0.017; IC50 at 72 h (in vitro; [11]): 130 nM; IC50 (MCF-10A [6]; read-out: Cytotoxic activity IC50, 72 h, mean of three independent experiments ± S.D.): 137 ± 15 nM; Potency compared to control POD (MCF-10A [6]): 0.144; Potency compared to control VP-16 (MCF-10A [6]): 0.341; effect on proliferation and recovery after treatment (BT-549 [7]; BT-549, 10, 2, and 0.4 µg/mL): dose-dependent cytotoxic effect at concentrations of 10, 2, and 0.4 µg/mL, which persisted after removal of the treatment; effect on proliferation and recovery after treatment (MCF-10A [8]; MCF-10A, 10, 2, and 0.4 µg/mL): dose-dependent cytotoxic effect at concentrations of 10, 2, and 0.4 µg/mL, which persisted after removal of the treatment
2 | COc1cc(C2=C3C(=O)OC[C@@H]3[C@@H](OC(C)=O)c3cc4c(cc32)OCO4)cc(OC)c1OC [Compound 4, 7′,8′-dehydroacetylpodophyllotoxin] | 2.90 | 93% ± 6.9% | 57% ± 1.4% | 0.151 | 0.242 | 160 nM and 161 nM | 74% ± 7.4% | 0.086 | 7.62 | – | 177% ± 15.6% | 180% ± 13.5% | 75% ± 12.2% | inhibitory effect on the survival and recovery | 1.32 | 96% ± 13.5% | 350 nM and 353 nM | about 55% ± 17.2% | 176% ± 18% | 160% ± 21% | water solubility [9]: low water solubility; percentage of survival (BT-549 [2]; BT-549, 0.4 µg/mL): 48% ± 8.8%; Potency compared to control VP-16 (BT-549 [2]): 2.6 and 2.604; percentage of recovery (MCF-7 [3]; MCF-7, 0.4 µg/mL): 57% ± 14.5%; percentage of recovery (MCF-7 [3]; MCF-7, 2 µg/mL): 29% ± 0.7%; percentage of survival (MCF-7 [5]; MCF-7, 0.4 µg/mL): 21% ± 7.2%; percentage of survival (MCF-7 [5]; MCF-7, 2 µg/mL): 11% ± 7.6%; Potency compared to control POD (MCF-7 [5]): 0.050; Potency compared to control VP-16 (MCF-7 [5]): 0.351; IC50 at 72 h (in vitro; [11]): 468 ± 2 nM; Potency compared to control POD (MCF-10A [6]): 0.042; Potency compared to control VP-16 (MCF-10A [6]): 0.100; percentage of recovery (BT-549 [7]; BT-549, 0.4 µg/mL): 98% ± 27.9%; effect on proliferation and recovery after treatment (BT-549 [7]; BT-549, 10 and 2 µg/mL): inhibitory effect on the survival and recovery
3 | COc1cc([C@@H]2c3cc4c(cc3[C@H](O)[C@H]3COC(=O)[C@H]23)OCO4)cc(OC)c1OC [POD, Podophyllotoxin, reference compound] | 0.81 | – | – | – | – | 24 ± 6 nM | – | – | – | 5 ± 1 nM | – | – | – | – | 1.11 | – | 18 ± 1 nM | – | – | – | selectivity in the selectivity analysis [10]: non-selective activity; effect on proliferation and recovery after treatment (MCF-7 [3]; MCF-7, different POD concentrations): arrest of cell proliferation, which persisted even after the toxic agent was removed; effect on proliferation and recovery after treatment (MDA-MB-231 [4]; MDA-MB-231, different POD concentrations): arrest of cell proliferation, which persisted even after the toxic agent was removed; IC50 at 72 h (in vitro): 20 ± 8 nM; survival (MCF-10A [6]; even at high concentrations (10, 2, 0.4, 0.08, and 0.016 µg/mL)): about 20%; effect on proliferation and recovery after treatment (BT-549 [7]; BT-549, different POD concentrations): arrest of cell proliferation, which persisted even after the toxic agent was removed; effect on proliferation and recovery after treatment (MCF-10A [8]; MCF-10A, different POD concentrations): arrest of cell proliferation, which persisted even after the toxic agent was removed
4 | COc1cc([C@@H]2c3cc4c(cc3[C@@H](O[C@@H]3O[C@@H]5CO[C@@H](C)O[C@H]5[C@H](O)[C@H]3O)[C@H]3COC(=O)[C@H]23)OCO4)cc(OC)c1O [VP-16, etoposide, reference compound] | 1.20 | 82% ± 5.6% | 48% ± 2.4% | – | – | 38 ± 4 nM | 67% ± 7.5% | – | 0.29 | 160 ± 10 nM | 183% ± 7.4% | 160% ± 7.4% | 98% ± 16.1% | caused inhibition of proliferation and cell recovery | 0.38 | 71% ± 20.7% | 124 ± 26 nM | 46% ± 2.8% | 101% ± 11.7% | 79% ± 5.1% | selectivity in the selectivity analysis [10]: non-selective compound; effect on proliferation and recovery after treatment (MCF-7 [3]; MCF-7, 10, 2, and 0.4 µg/mL): did not recover proliferation after treatment; IC50 at 72 h (in vitro; MCF-10A cells, Cytotoxic activity IC50, MCF-10A, 72 h, mean of three independent experiments ± S.D.): 47 ± 9 nM; effect on proliferation and recovery after treatment (BT-549 [7]; BT-549, 10, 2, and 0.4 µg/mL): did not recover proliferation after treatment; effect on proliferation and recovery after treatment (MCF-10A [8]; MCF-10A, 10, 2, and 0.4 µg/mL): did not recover proliferation after treatment

From publication PMC6274026 (Molecules, 2016)
